The target of the experiment is T1, hDOR (human delta opioid receptor) (Homo sapiens, UniProt P41143).
T1 construct: gene OPRD1; stably transfected in CHO cells (CHO-hDOR); membrane homogenates
It is filed as binding. The conditions noted are these: read-out: Ki values (nM) Mean (SEM).

T1 sequence (P41143 whole entry): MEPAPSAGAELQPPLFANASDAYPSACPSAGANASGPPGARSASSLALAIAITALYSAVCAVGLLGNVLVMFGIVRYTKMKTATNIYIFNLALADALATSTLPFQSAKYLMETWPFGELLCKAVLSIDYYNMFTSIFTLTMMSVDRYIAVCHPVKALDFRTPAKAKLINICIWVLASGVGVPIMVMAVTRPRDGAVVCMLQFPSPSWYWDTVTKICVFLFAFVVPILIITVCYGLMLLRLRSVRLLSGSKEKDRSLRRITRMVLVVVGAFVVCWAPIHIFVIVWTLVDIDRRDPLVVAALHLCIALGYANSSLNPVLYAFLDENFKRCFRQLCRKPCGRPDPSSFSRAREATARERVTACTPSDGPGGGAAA

Take “(4R,4aS,6R,7R,7aR,12bS)-3-(cyclopropylmethyl-d 2 )-6-(2-hydroxy-3,3-dimethylbutan-2-yl)-7-methoxy-1,2,3,4,5,6,7,7a-octahy dro-4a,7-ethano-4,12-methanobenzofuro[3,2-e]isoquinolin-9-ol [BUP-D2]”: the inhibition constant (Ki) (as a rule, a measure of affinity in units of concentration, obtained from inhibition or displacement) amounted to 0.424 nM.

The values above are taken from paper PMC10204800 (Frontiers in Pharmacology, 2023).
